Source: PMC12586182 (Frontiers in Oncology, 2025)

Legend:
Assay in all cases: Cell viability assay (ATPlite)
Type in all cases: cell-based
CCF-STTG1 = conditions: Homo sapiens; CCF-STTG1 cell line, 72 hours incubation
Description: (§1) Intracellular ATP content was used as an indirect readout of cell number using the ATPlite 1Step bioluminescence assay (Revvity, Groningen, the Netherlands). Cells were seeded in 384-well plates at an optimized density to ensure unrestricted growth and maximal signal at the end of the experiment. After 24 hours of incubation, the starting cell number was determined by adding ATPlite to each well of a control plate and recording luminescence on an Envision multimode reader (Revvity, Waltham, MA, USA) ([4]). Compounds were diluted in DMSO in √10-fold steps from 10 mmol/L stocks to obtain 9-point dilution series. After further 31.6-fold dilution in 20 mmol/L HEPES (pH 7.4), the dilution series were added in duplicate to the cells in the 384-well plates to determine the effect of the compounds on cell viability. Vehicle-treated controls were included to determine maximal cell proliferation. The final DMSO concentration was 0.4% (v/v) in all wells. After incubation for an additional 72 hours, the ATP content was measured in each well using ATPlite. The luminescent signal in inhibitor-treated wells was normalized to vehicle-treated control wells to determine the percentage viability at each concentration. Cell doublings were determined by relating the cell number of vehicle-treated controls to the starting cell number for each cell line. The viability assay of a cell line was repeated when the cell doubling deviated > 2-fold from the historic doubling as determined by multiple independent experiments. The quality of the complete assay was determined by a parallel test with doxorubicin on two cell lines. IC50 values were calculated by fitting a four-parameter logistic model to the percentage viability values using IDBS XLfit5 (IDBS, Guildford, United Kingdom). All curves were visually inspected and submitted to an F-test as implemented in IDBS XLfit5. Curves with an F-value above 1.5 were invalidated and IC50 values were maximized at the highest concentration.

A-375 = conditions: Homo sapiens; A-375 cell line, 72 hours incubation
Description: as §1

NCI-H82 = conditions: Homo sapiens; NCI-H82 cell line, 72 hours incubation
Description: as §1

MSTO-211H = conditions: Homo sapiens; MSTO-211H cell line, 72 hours incubation
Description: as §1

MG-63 = conditions: Homo sapiens; MG-63 cell line, 72 hours incubation
Description: as §1

A-498 = conditions: Homo sapiens, A498; A-498 cell line, 72 hours incubation
Description: as §1

U2OS = conditions: Homo sapiens; U2OS cell line, 72 hours incubation
Description: as §1

PA-1 = conditions: Homo sapiens; PA-1 cell line, 72 hours incubation
Description: as §1

SW948 = conditions: Homo sapiens; SW948 cell line, 72 hours incubation
Description: as §1

SW900 = conditions: Homo sapiens; SW900 cell line, 72 hours incubation
Description: as §1

RL = conditions: Homo sapiens; RL cell line, 72 hours incubation
Description: as §1

SK-N-AS = conditions: Homo sapiens; SK-N-AS cell line, 72 hours incubation
Description: as §1

ACHN = conditions: Homo sapiens; ACHN cell line, 72 hours incubation
Description: as §1

HCC827 = conditions: Homo sapiens; HCC827 cell line, 72 hours incubation
Description: as §1

DU4475 = conditions: Homo sapiens, DU-4475; DU4475 cell line, 72 hours incubation
Description: as §1

H9 = conditions: Homo sapiens; H9 cell line, 72 hours incubation
Description: as §1

SUP-T1 = conditions: Homo sapiens; SUP-T1 cell line, 72 hours incubation
Description: as §1

Hs 766T = conditions: Homo sapiens, Hs766T; Hs 766T cell line, 72 hours incubation
Description: as §1

DLD-1 = conditions: Homo sapiens; DLD-1 cell line, 72 hours incubation
Description: as §1

Ku812 = conditions: Homo sapiens; Ku812 cell line, 72 hours incubation
Description: as §1

MeWo = conditions: Homo sapiens; MeWo cell line, 72 hours incubation
Description: as §1

L-82 = conditions: Homo sapiens; L-82 cell line, 72 hours incubation
Description: as §1

PC-3 = conditions: Homo sapiens; PC-3 cell line, 72 hours incubation
Description: as §1

BL-70 = conditions: Homo sapiens; BL-70 cell line, 72 hours incubation
Description: as §1

SHP-77 = conditions: Homo sapiens, SHP77; SHP-77 cell line, 72 hours incubation
Description: as §1

SNU-5 = conditions: Homo sapiens; SNU-5 cell line, 72 hours incubation
Description: as §1

MM1.S = conditions: Homo sapiens; MM1.S cell line, 72 hours incubation
Description: as §1

SNU-C2B = conditions: Homo sapiens; SNU-C2B cell line, 72 hours incubation
Description: as §1

PFSK-1 = conditions: Homo sapiens; PFSK-1 cell line, 72 hours incubation
Description: as §1

LS174T = conditions: Homo sapiens; LS174T cell line, 72 hours incubation
Description: as §1

MDA-MB-468 = conditions: Homo sapiens; MDA-MB-468 cell line, 72 hours incubation
Description: as §1

NCI-H2228 = conditions: Homo sapiens; NCI-H2228 cell line, 72 hours incubation
Description: as §1

Work on `O=C(c1ccc(Oc2ccccc2)cc1Cl)c1c[nH]c2ncnc(N[C@@H]3CC[C@@H](CO)OC3)c12` [nemtabrutinib] yielded an IC50 (CCF-STTG1) of 16.7 µM, an IC50 (A-375) of 0.404 µM and an IC50 (NCI-H82) of 12.3 µM. It also gave an IC50 (MSTO-211H) of 3.86 µM, an IC50 (MG-63) of 5.82 µM and an IC50 (A-498) of 6.4 µM. For the same molecule, the IC50 (U2OS) was 2.67 µM, the IC50 (PA-1) was 3.03 µM and the IC50 (SW948) was 3.57 µM. It also gave an IC50 (SW900) of 2.29 µM, an IC50 (RL) of 4.06 µM and an IC50 (SK-N-AS) of 2.81 µM. For the same molecule, the IC50 (ACHN) was 2.29 µM, the IC50 (HCC827) was 4.72 µM and the IC50 (DU4475) was 1.13 µM. The IC50 (H9) was 1.32 µM, the IC50 (SUP-T1) was 12.1 µM and the IC50 (Hs 766T) was 1.82 µM. It also gave an IC50 (DLD-1) of 4.6 µM, an IC50 (Ku812) of 1.43 µM and an IC50 (MeWo) of 10.2 µM. It also gave an IC50 (L-82) of 14 µM, an IC50 (PC-3) of 26.8 µM and an IC50 (BL-70) of 0.498 µM. For the same molecule, the IC50 (SHP-77) was 14.6 µM, the IC50 (SNU-5) was 8.05 µM and the IC50 (MM1.S) was 5.48 µM. The IC50 (SNU-C2B) was 2.92 µM, the IC50 (PFSK-1) was 11.3 µM and the IC50 (LS174T) was 1.74 µM. For the same molecule, the IC50 (MDA-MB-468) was 6.25 µM and the IC50 (NCI-H2228) was 7.5 µM.
